Measured values: patent US6313310A, “4-and 5-alkynyloxindoles and 4-and 5-alkenyloxindoles” (Hoffmann-La Roche Inc., priority 1999, dated 2001)

Molecular target: rat SAPK (isoform β) (Rattus norvegicus, UniProt P49187)
Test: SAPK FlashPlate Assay (inhibition of cJun phosphorylation)
Format: biochemical
Conditions: Table I B; for inhibition at 1 µM: Concentration <1.0 μM
Procedure: "IC50 " refers to the concentration of a particular 4- or 5-alkynyloxindole or 4- or 5-alkenyloxindole required to inhibit 50% of cJun phosphorylation, which is a measure of inhibition of SAPK activity. IC50 can be measured, inter alia, using the assay described herein in Example 102.
Human JNK is highly homologous to rat SAPK. To measure the inhibitory activity of test compounds, the compounds were tested in the rat SAPK assay.
For the SAPK assay, purified GST-cJun (a chimeric protein containing cjun, a natural substrate of JNK) was coated on 96 well FlashPlates (New England Nuclear, Boston, Mass.). Purified rat SAPK (isoform β, Kyriakis et al. supra) was preincubated with preparations containing MEKK-1 and MKK4 for 30 minutes at 37° C. in assay buffer containing 25 mM HEPES, pH 7.5, 150 mM NaCl, 20 mM MgCl2, 2 mM DTT, 0.001% Tween 20, 1 μM ATP freshly added. In the preincubation step, MEKK-1 phosphorylates and activates MKK-4, which in turn phosphorylates and activates SAPK. The activated SAPK was then added to the cJun coated FlashPlates along with ^33 P-ATP (0.32 μCi per reaction) and test compounds. The plates were incubated for 30 minutes at 37° C., then washed with PBS, 0.01% Tween 20, and counted in the Topcount scintillation counter (Packard Instrument Co., Downers Grove, Ill.). Dilutions of compounds were tested in duplicate in each assay. The percent inhibition of cJun phosphorylation (a measure of inhibition of SAPK activity) was determined by the following formula: [formula]
where "test compound" refers to the average counts per minute of the test duplicates, "nonspecific" refers to the average counts per minute when no SAPK was added, and "total" refers to the average counts per minute when no compound was added.

rat SAPK (isoform β), sequence (P49187 whole entry, canonical isoform): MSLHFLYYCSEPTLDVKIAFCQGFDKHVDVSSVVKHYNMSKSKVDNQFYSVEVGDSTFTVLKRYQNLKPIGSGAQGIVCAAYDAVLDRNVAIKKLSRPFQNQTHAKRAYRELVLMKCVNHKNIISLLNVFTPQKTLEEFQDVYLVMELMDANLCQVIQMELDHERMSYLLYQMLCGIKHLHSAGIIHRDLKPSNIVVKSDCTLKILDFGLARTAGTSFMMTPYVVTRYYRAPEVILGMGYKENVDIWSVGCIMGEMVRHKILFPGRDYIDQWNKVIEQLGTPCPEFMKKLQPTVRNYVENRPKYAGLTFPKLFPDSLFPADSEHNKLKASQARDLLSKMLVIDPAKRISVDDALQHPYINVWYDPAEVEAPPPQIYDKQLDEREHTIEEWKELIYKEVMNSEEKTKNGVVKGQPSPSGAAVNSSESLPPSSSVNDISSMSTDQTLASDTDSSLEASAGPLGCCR

With `COc1cc(C(O)C#Cc2cccc3c2/C(=C/c2[nH]ccc2OC)C(=O)N3)ccc1O` (racemic) [O, rac-(Z)-1,3-Dihydro-4-[3-hydroxy-3-(4-hydroxy-3-methoxyphenyl)-1-propynyl]-3-[(3-methoxy-1H-pyrrol-2-yl)methylene]-2H-indol-2-one] the inhibition at 1 µM was over 50%.

Compound `COc1cc[nH]c1/C=C1\C(=O)Nc2ccc(NC(=O)Cc3cccs3)c(C#Cc3cccnc3)c21` [III] has an inhibition at 0.1 µM (Concentration <0.10 μM) of under 50%.

Compound `COc1cc[nH]c1/C=C1\C(=O)Nc2cccc(C#CC(O)c3cccn3C)c21` (racemic) [AA, rac-(Z)-1,3-Dihydro-4-[3-hydroxy-3-(1-methyl-pyrrol-2-yl)-1-propynyl]-3-[(3-methoxy-1H-pyrrol-2-yl)methylene]-2H-indol-2-one] has an inhibition at 1 µM of over 50%.
